Measured values: patent US20170349593A1, “BTK INHIBITORS” (MERCK SHARP & DOHME CORP., priority 2014, published 2017)
pIC50: −log10 of the molar value.

Tests used:
[1] = biological target: T1, BTK enzyme (recombinant full-length BTK, hBTK) (Homo sapiens, UniProt Q06187); assay: Btk enzyme activity assay (LANCE TR-FRET); format: biochemical; conditions: 50 pM hBTK, 25 μM ATP, 60 minute compound and enzyme incubation, concentration range 1 μM to 0.017 nM, read-out: BTK binding IC50
T1 construct: recombinant protein from baculovirus-transfected S 19 cells: full-length BTK, 6 HIS-tag cleaved; 6 HIS-tag (cleaved yes); made in house
T1 sequence (Q06187 whole entry): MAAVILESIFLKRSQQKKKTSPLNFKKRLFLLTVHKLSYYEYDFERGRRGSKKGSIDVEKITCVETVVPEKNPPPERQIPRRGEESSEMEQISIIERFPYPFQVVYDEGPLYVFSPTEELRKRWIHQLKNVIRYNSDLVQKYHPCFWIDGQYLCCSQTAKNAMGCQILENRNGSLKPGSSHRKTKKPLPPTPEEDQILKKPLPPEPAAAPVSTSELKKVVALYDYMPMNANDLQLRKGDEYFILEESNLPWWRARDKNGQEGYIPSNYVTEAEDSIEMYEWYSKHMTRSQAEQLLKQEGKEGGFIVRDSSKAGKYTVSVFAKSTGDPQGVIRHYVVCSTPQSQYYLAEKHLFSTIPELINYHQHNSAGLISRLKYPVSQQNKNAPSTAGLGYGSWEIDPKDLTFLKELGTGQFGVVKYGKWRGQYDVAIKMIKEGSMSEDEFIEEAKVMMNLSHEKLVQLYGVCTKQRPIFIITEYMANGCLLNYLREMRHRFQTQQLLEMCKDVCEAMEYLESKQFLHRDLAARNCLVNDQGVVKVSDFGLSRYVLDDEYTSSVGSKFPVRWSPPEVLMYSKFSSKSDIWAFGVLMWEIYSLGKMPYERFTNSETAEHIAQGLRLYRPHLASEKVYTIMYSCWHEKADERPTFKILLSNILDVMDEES

[2] = tested on: adenosine uptake into HeLa cells; assay: [3H]Adenosine uptake assay; format: cell-based; conditions: Homo sapiens; accumulation of [3H]adenosine into HeLa cells; concentration range 10 μM to 0.032 nM; read-out: ADU inhibition IC50
Experimental: Compounds are also screened in an adenosine uptake functional cellular assay using the protocol described below:
Adenosine uptake activity was determined by monitoring the accumulation of tritiated adenosine into HeLa cells (ATCC catalog #CCL-2) using a PMT-based radiometric detection instrument. In this assay, the potency (IC50) of each compound was determined from a ten point (1:3 serial dilution; final compound concentration range in assay from 10 μM to 0.032 nM) titration curve using the following outlined procedure. To each well of a 96-well CytoStar-T scintillating microplate (Perkin Elmer Catalog #RPNQ0163), 25 000 HeLa cells in 100 μL of growth medium comprising: Minimum Essential Media (Life Technologies Catalog #11095-080)+10% (v/v) foetal bovine serum (FBS; Sigma Aldrich Catalog #F2442) was added. These cells were incubated overnight at 37° C. in a humidified atmosphere with 5% (v/v) CO2. After this time the growth medium was removed and replaced with 40 μL assay medium comprising: Hanks balanced salts solution (HBSS; Thermo Fisher Catalog # SH30268.01)+5% (v/v) FBS. Compound stock solutions in DMSO were diluted in assay medium to 2.5× final compound concentration maintaining a constant DMSO concentration of 0.25% (v/v). 40 μL of compound in assay medium was dispensed into individual wells of the Cytostar-T plates and the plates were incubated for 30 minutes under ambient laboratory conditions. Following this incubation, 20 μL of 500 nM [^3H] adenosine (American Radiolabeled Chemicals Inc. Catalog #ART0287) in assay medium was added and incubated for a further 60 minutes under ambient laboratory conditions. The amount of radiolabel accumulation was then determined using a Perkin Elmer Topcount NXT microplate reader. In brief, HeLa cells adhere to the bottom of the Cytostar-T plate, uptake of [^3H]adenosine into these cells brings the radiolabel into sufficient proximity to excite the scintillant in the base of the plates. These events are captured by single PMT, time-resolved coincidence counting. IC50 values were determined by 4 parameter robust fit of counts per second values vs. (Log10)) compound concentrations.

Row | pIC50 [1] | pIC50 [2] | Structure (SMILES)
1 | 6.46 | 6.04 | CCOc1cc(C(=O)Nc2cc(C(F)(F)F)ccn2)ccc1-c1nc([C@@H]2CC[C@H](C(F)(F)F)N(C(=O)C3CC3)C2)n2ccnc(N)c12 [Example 1, 4-{8-amino-3-[(3R,6R)-1-(cyclopropylcarbonyl)-6-(trifluoromethyl)piperidin-3-yl]imidazo[1,5-a]pyrazin-1-yl}-3-ethoxy-N-[4-(trifluoromethyl)pyridin-2-yl]benzamide]
2 | 8.86 | 6.04 | CCOc1cc(C(=O)Nc2cc(C(F)(F)F)ccn2)ccc1-c1nc([C@H]2CC[C@H](C(F)(F)F)N(C(=O)C3CC3)C2)n2ccnc(N)c12 [Example 2, 4-{8-amino-3-[(3S,6R)-1-(cyclopropylcarbonyl)-6-(trifluoromethyl)piperidin-3-yl]imidazo[1,5-a]pyrazin-1-yl}-3-ethoxy-N-[4-(trifluoromethyl)pyridin-2-yl]benzamide]
3 | 6.00 | 6.07 | CCOc1cc(C(=O)Nc2cc(C(F)(F)F)ccn2)ccc1-c1nc([C@H]2CC[C@@H](C(F)(F)F)N(C(=O)C3CC3)C2)n2ccnc(N)c12 [Example 3, 4-{8-amino-3-[(3S,6S)-1-(cyclopropylcarbonyl)-6-(trifluoromethyl)piperidin-3-yl]imidazo[1,5-a]pyrazin-1-yl}-3-ethoxy-N-[4-(trifluoromethyl)pyridin-2-yl]benzamide]
4 | 7.40 | 5.97 | CCOc1cc(C(=O)Nc2cc(C(F)(F)F)ccn2)ccc1-c1nc([C@@H]2CC[C@@H](C(F)(F)F)N(C(=O)C3CC3)C2)n2ccnc(N)c12 [Example 4, 4-{8-amino-3-[(3R,6S)-1-(cyclopropylcarbonyl)-6-(trifluoromethyl)piperidin-3-yl]imidazo[1,5-a]pyrazin-1-yl}-3-ethoxy-N-[4-(trifluoromethyl)pyridin-2-yl]benzamide]
5 | 8.15 | ≤ 5.00 | CCOc1cc(C(=O)Nc2cc(C(F)(F)F)n(C)n2)ccc1-c1nc([C@H]2CN(C(=O)C3CC3)[C@@H](C)CO2)n2c(Cl)cnc(N)c12 [Example 5, 4-{8-amino-5-chloro-3-[(2R,5S)-4-(cyclopropylcarbonyl)-5-methylmorpholin-2-yl]imidazo[1,5-a]pyrazin-1-yl}-3-ethoxy-N-[1-methyl-5-(trifluoromethyl)-1H-pyrazol-3-yl]benzamide]
6 | 8.24 | ≤ 5.00 | CCOc1cc(C(=O)Nc2cc(C(F)(F)F)n(C)n2)ccc1-c1nc([C@H]2CN(C(=O)[C@H](C)O)[C@@H](C)CO2)n2c(Cl)cnc(N)c12 [Example 6, 4-(8-amino-5-chloro-3-{(2R,5S)-4-[(2S)-2-hydroxypropanoyl]-5-methylmorpholin-2-yl}imidazo[1,5-a]pyrazin-1-yl)-3-ethoxy-N-[1-methyl-5-(trifluoromethyl)-1H-pyrazol-3-yl]benzamide]
7 | 8.78 | ≤ 5.00 | CCOc1cc(C(=O)Nc2cc(C(F)(F)F)ccn2)ccc1-c1nc([C@H]2CN(C(=O)C(C)C)[C@@H](C)CO2)n2c(Cl)cnc(N)c12 [Example 7, 4-{8-amino-5-chloro-3-[(2R,5S)-5-methyl-4-(2-methylpropanoyl)morpholin-2-yl]imidazo[1,5-a]pyrazin-1-yl}-3-ethoxy-N-[4-(trifluoromethyl)pyridin-2-yl]benzamide]
8 | 8.92 | ≤ 5.00 | CCOc1cc(C(=O)Nc2cc(C(F)(F)F)ccn2)ccc1-c1nc([C@H]2CN(C(=O)C3CC3)[C@@H](C)CO2)n2c(Cl)cnc(N)c12 [Example 8, 4-{8-amino-5-chloro-3-[(2R,5S)-4-(cyclopropylcarbonyl)-5-methylmorpholin-2-yl]imidazo[1,5-a]pyrazin-1-yl}-3-ethoxy-N-[4-(trifluoromethyl)pyridin-2-yl]benzamide]
9 | 8.42 | 5.57 | CCc1cnc(N)c2c(-c3ccc(C(=O)Nc4cc(C(F)(F)F)ccn4)cc3OC)nc([C@H]3CN(C(=O)C4CC4)[C@@H](C)CO3)n12 [Example 9, 4-{8-amino-3-[(2R,5S)-4-(cyclopropylcarbonyl)-5-methylmorpholin-2-yl]-5-ethylimidazo[1,5-a]pyrazin-1-yl}-3-methoxy-N-[4-(trifluoromethyl)pyridin-2-yl]benzamide]
10 | 9.28 | 5.92 | C=Cc1cnc(N)c2c(-c3ccc(C(=O)Nc4cc(C(F)(F)F)ccn4)cc3OC)nc([C@H]3CN(C(=O)C4CC4)[C@@H](C)CO3)n12 [Example 10, 4-{8-amino-3-[(2R,5S)-4-(cyclopropylcarbonyl)-5-methylmorpholin-2-yl]-5-ethenylimidazo[1,5-a]pyrazin-1-yl}-3-methoxy-N-[4-(trifluoromethyl)pyridin-2-yl]benzamide]
11 | 8.85 | 5.51 | CCOc1cc(C(=O)Nc2cc(C(F)(F)F)ccn2)ccc1-c1nc([C@H]2CN(C(=O)[C@@H](C)O)[C@@H](C)CO2)n2c(Cl)cnc(N)c12 [Example 11, 4-(8-amino-5-chloro-3-{(2R,5S)-4-[(2R)-2-hydroxypropanoyl]-5-methylmorpholin-2-yl}imidazo[1,5-a]pyrazin-1-yl)-3-ethoxy-N-[4-(trifluoromethyl)pyridin-2-yl]benzamide]
12 | 8.96 | ≤ 5.00 | CCOc1cc(C(=O)Nc2cc(C(F)(F)F)ccn2)ccc1-c1nc([C@H]2CN(C(=O)C3(C)CC3)[C@@H](C)CO2)n2c(Cl)cnc(N)c12 [Example 12, 4-(8-amino-5-chloro-3-{(2R,5S)-5-methyl-4-[(1-methylcyclopropyl)carbonyl]morpholin-2-yl}imidazo[1,5-a]pyrazin-1-yl)-3-ethoxy-N-[4-(trifluoromethyl)pyridin-2-yl]benzamide]
13 | 8.41 | 5.77 | COc1cc(C(=O)Nc2cc(C(F)(F)F)ccn2)ccc1-c1nc([C@H]2CN(C(=O)[C@H](C)OC)[C@@H](C)CO2)n2c(Cl)cnc(N)c12 [Example 13, 4-(8-amino-5-chloro-3-{(2R,5S)-4-[(2S)-2-methoxypropanoyl]-5-methylmorpholin-2-yl}imidazo[1,5-a]pyrazin-1-yl)-3-methoxy-N-[4-(trifluoromethyl)pyridin-2-yl]benzamide]
14 | 8.69 | 5.77 | COc1cc(C(=O)Nc2cc(C(F)(F)F)ccn2)ccc1-c1nc([C@H]2CN(C(=O)[C@@H](C)O)[C@@H](C)CO2)n2c(Cl)cnc(N)c12 [Example 14, 4-(8-amino-5-chloro-3-{(2R,5S)-4-[(2R)-2-hydroxypropanoyl]-5-methylmorpholin-2-yl}imidazo[1,5-a]pyrazin-1-yl)-3-methoxy-N-[4-(trifluoromethyl)pyridin-2-yl]benzamide]
15 | 8.06 |  | COCC(=O)N1C[C@H](c2nc(-c3ccc(C(=O)Nc4cc(C(F)(F)F)ccn4)cc3F)c3c(N)nccn23)OC[C@H]1CO [Example 56, 4-{8-amino-3-[(2R,5R)-5-(hydroxymethyl)-4-(methoxyacetyl)morpholin-2-yl]imidazo[1,5-a]pyrazin-1-yl}-3-fluoro-N-[4-(trifluoromethyl)pyridin-2-yl]benzamide]
16 | 8.16 |  | CS(=O)(=O)CC(=O)N1C[C@H](c2nc(-c3ccc(C(=O)Nc4cc(C(F)(F)F)ccn4)cc3F)c3c(N)nccn23)OC[C@H]1CO [Example 58, 4-(8-amino-3-{(2R,5R)-5-(hydroxymethyl)-4-[(methylsulfonyl)acetyl]morpholin-2-yl}imidazo[1,5-a]pyrazin-1-yl)-3-fluoro-N-[4-(trifluoromethyl)pyridin-2-yl]benzamide]
17 | 7.91 |  | C[C@H](O)C(=O)N1C[C@H](c2nc(-c3ccc(C(=O)Nc4cc(C(F)(F)F)ccn4)cc3F)c3c(N)nccn23)OC[C@H]1CO [Example 59, 4-(8-amino-3-{(2R,5R)-5-(hydroxymethyl)-4-[(2S)-2-hydroxypropanoyl]morpholin-2-yl}imidazo[1,5-a]pyrazin-1-yl)-3-fluoro-N-[4-(trifluoromethyl)pyridin-2-yl]benzamide]
18 | 9.43 |  | CNC(=O)N1C[C@H](c2nc(-c3ccc(C(=O)Nc4cc(C(F)(F)F)ccn4)c(F)c3)c3c(N)nccn23)CC[C@@H]1C [Example 94, (2S,5R)-5-[8-amino-1-(3-fluoro-4-{[4-(trifluoromethyl)pyridin-2-yl]carbamoyl}phenyl)imidazo[1,5-a]pyrazin-3-yl]-N,2-dimethylpiperidine-1-carboxamide]

Row | Structure (SMILES) | pIC50 [1] | pIC50 [2]
19 | C[C@H]1CO[C@@H](c2nc(-c3ccc(C(=O)Nc4cc(C(F)(F)F)ccn4)cc3F)c3c(N)nccn23)CN1C(=O)C1CC1 [Example 86, 4-{8-amino-3-[(2R,5S)-4-(cyclopropylcarbonyl)-5-methylmorpholin-2-yl]imidazo[1,5-a]pyrazin-1-yl}-3-fluoro-N-[4-(trifluoromethyl)pyridin-2-yl]benzamide] |  | 6.61
